From PubChem BioAssay (NCI)
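Dose response: 5 concentrations. Exposure: 48 h. Format: 96-well plates. Endpoint: linear interpolation; highest concentration if not reached. GI50 is the concentration that inhibits growth by half. The concentration for full growth arrest is given as TGI.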

Experiments:
Experiment in all cases: growth of human tumour cells (NCI), 48 h
UACC-257 melanoma = test system: UACC-257 melanoma
786-0 renal = test system: 786-0 renal
UACC-62 melanoma = test system: UACC-62 melanoma
HOP-92 NSCLC = test system: HOP-92 NSCLC
HS 578T breast = test system: HS 578T breast
MDA-MB-435 = test system: MDA-MB-435
SK-MEL-2 melanoma = test system: SK-MEL-2 melanoma
A549 NSCLC = test system: A549 NSCLC
T-47D breast = test system: T-47D breast
CAKI-1 renal = test system: CAKI-1 renal
KM12 colon = test system: KM12 colon
TK-10 renal = test system: TK-10 renal
U251 CNS = test system: U251 CNS
IGROV1 ovarian = test system: IGROV1 ovarian
SNB-75 CNS = test system: SNB-75 CNS
SK-MEL-28 melanoma = test system: SK-MEL-28 melanoma
OVCAR-5 ovarian = test system: OVCAR-5 ovarian
HCC-2998 colon = test system: HCC-2998 colon
CCRF-CEM leukemia = test system: CCRF-CEM leukemia
EKVX NSCLC = test system: EKVX NSCLC
HT29 colon = test system: HT29 colon
MDA-MB-231 breast = test system: MDA-MB-231 breast
HCT-15 colon = test system: HCT-15 colon
NCI-H522 lung = test system: NCI-H522 lung
HCT-116 colon = test system: HCT-116 colon
M14 melanoma = test system: M14 melanoma
SK-MEL-5 melanoma = test system: SK-MEL-5 melanoma
SW-620 colon = test system: SW-620 colon
OVCAR-3 ovarian = test system: OVCAR-3 ovarian
COLO 205 colon = test system: COLO 205 colon
PC-3 prostate = test system: PC-3 prostate
MCF7 breast = test system: MCF7 breast
NCI-H460 lung = test system: NCI-H460 lung
SK-OV-3 ovarian = test system: SK-OV-3 ovarian
ACHN renal = test system: ACHN renal
DU-145 prostate = test system: DU-145 prostate
SF-295 CNS = test system: SF-295 CNS
NCI/ADR-RES ovarian = test system: NCI/ADR-RES ovarian
NCI-H23 lung = test system: NCI-H23 lung
OVCAR-8 ovarian = test system: OVCAR-8 ovarian
SF-539 CNS = test system: SF-539 CNS
OVCAR-4 ovarian = test system: OVCAR-4 ovarian
UO-31 renal = test system: UO-31 renal
HOP-62 NSCLC = test system: HOP-62 NSCLC
LOX IMVI melanoma = test system: LOX IMVI melanoma
MALME-3M melanoma = test system: MALME-3M melanoma
SF-268 CNS = test system: SF-268 CNS
RXF 393 renal = test system: RXF 393 renal
SNB-19 CNS = test system: SNB-19 CNS
HL-60(TB) leukemia = test system: HL-60(TB) leukemia
RPMI-8226 leukemia = test system: RPMI-8226 leukemia
K-562 leukemia = test system: K-562 leukemia
SR leukemia = test system: SR leukemia
SN12C renal = test system: SN12C renal
NCI-H226 lung = test system: NCI-H226 lung

CCC(=O)OC1CCC2C3CCC(=O)OC3C(C)(CCC(=O)O)CC12C (centres undefined)
GI50 (UACC-257 melanoma): 5.73 µM
TGI (UACC-257 melanoma): > 100 µM
GI50 (786-0 renal): 5.49 µM
TGI (786-0 renal): > 100 µM
GI50 (UACC-62 melanoma): 3 µM
TGI (UACC-62 melanoma): > 100 µM
GI50 (HOP-92 NSCLC): 0.997 µM
TGI (HOP-92 NSCLC): 4.76 µM
GI50 (HS 578T breast): 1.63 µM
TGI (HS 578T breast): 7.93 µM
GI50 (MDA-MB-435): 2.24 µM
TGI (MDA-MB-435): 13.2 µM
GI50 (SK-MEL-2 melanoma): 1.86 µM
TGI (SK-MEL-2 melanoma): > 100 µM
GI50 (A549 NSCLC): 3.81 µM
TGI (A549 NSCLC): > 100 µM
GI50 (T-47D breast): 0.929 µM
TGI (T-47D breast): 6.16 µM
GI50 (CAKI-1 renal): 3.22 µM
TGI (CAKI-1 renal): 15.9 µM
GI50 (KM12 colon): 2.59 µM
TGI (KM12 colon): > 100 µM
GI50 (TK-10 renal): 3.46 µM
TGI (TK-10 renal): 21.9 µM
GI50 (U251 CNS): 3.11 µM
TGI (U251 CNS): 45.3 µM
GI50 (IGROV1 ovarian): 2.47 µM
TGI (IGROV1 ovarian): 16.2 µM
GI50 (SNB-75 CNS): 2.87 µM
TGI (SNB-75 CNS): > 100 µM
GI50 (SK-MEL-28 melanoma): 3.81 µM
TGI (SK-MEL-28 melanoma): > 100 µM
GI50 (OVCAR-5 ovarian): 5.6 µM
TGI (OVCAR-5 ovarian): > 100 µM
GI50 (HCC-2998 colon): 3.53 µM
TGI (HCC-2998 colon): > 100 µM
GI50 (CCRF-CEM leukemia): 0.374 µM
TGI (CCRF-CEM leukemia): > 100 µM
GI50 (EKVX NSCLC): 2.08 µM
TGI (EKVX NSCLC): > 100 µM
GI50 (HT29 colon): 3.86 µM
TGI (HT29 colon): > 100 µM
GI50 (MDA-MB-231 breast): 1.45 µM
TGI (MDA-MB-231 breast): 6.28 µM
GI50 (HCT-15 colon): 2.83 µM
TGI (HCT-15 colon): > 100 µM
GI50 (NCI-H522 lung): 2.08 µM
TGI (NCI-H522 lung): > 100 µM
GI50 (HCT-116 colon): 3.62 µM
TGI (HCT-116 colon): > 100 µM
GI50 (M14 melanoma): 3.59 µM
TGI (M14 melanoma): > 100 µM
GI50 (SK-MEL-5 melanoma): 3.9 µM
TGI (SK-MEL-5 melanoma): > 100 µM
GI50 (SW-620 colon): 2.87 µM
TGI (SW-620 colon): > 100 µM
GI50 (OVCAR-3 ovarian): 2.16 µM
TGI (OVCAR-3 ovarian): 10.5 µM
GI50 (COLO 205 colon): 3.48 µM
TGI (COLO 205 colon): 69.1 µM
GI50 (PC-3 prostate): 2.36 µM
TGI (PC-3 prostate): > 100 µM
GI50 (MCF7 breast): 1.61 µM
TGI (MCF7 breast): > 100 µM
GI50 (NCI-H460 lung): 2.04 µM
TGI (NCI-H460 lung): > 100 µM
GI50 (SK-OV-3 ovarian): 2.47 µM
TGI (SK-OV-3 ovarian): > 100 µM
GI50 (ACHN renal): 4.74 µM
TGI (ACHN renal): > 100 µM
GI50 (DU-145 prostate): 3.59 µM
TGI (DU-145 prostate): 19.1 µM
GI50 (SF-295 CNS): 1.16 µM
TGI (SF-295 CNS): 2.68 µM
GI50 (NCI/ADR-RES ovarian): 2.54 µM
TGI (NCI/ADR-RES ovarian): > 100 µM
GI50 (NCI-H23 lung): 3.35 µM
TGI (NCI-H23 lung): > 100 µM
GI50 (OVCAR-8 ovarian): 3.49 µM
TGI (OVCAR-8 ovarian): > 100 µM
GI50 (SF-539 CNS): 2.1 µM
TGI (SF-539 CNS): 17.4 µM
GI50 (OVCAR-4 ovarian): 6.61 µM
TGI (OVCAR-4 ovarian): > 100 µM
GI50 (UO-31 renal): 0.494 µM
TGI (UO-31 renal): > 100 µM
GI50 (HOP-62 NSCLC): 7.49 µM
TGI (HOP-62 NSCLC): > 100 µM
GI50 (LOX IMVI melanoma): 3.87 µM
TGI (LOX IMVI melanoma): > 100 µM
GI50 (MALME-3M melanoma): 2.76 µM
TGI (MALME-3M melanoma): > 100 µM
GI50 (SF-268 CNS): 3.6 µM
TGI (SF-268 CNS): > 100 µM
GI50 (RXF 393 renal): 0.617 µM
TGI (RXF 393 renal): > 100 µM

CC(O)CCc1ccc(Oc2c3ccccc3nc3occc23)cc1 (centres undefined)
GI50 (UACC-257 melanoma): 3.7 µM
TGI (UACC-257 melanoma): 14.4 µM
GI50 (786-0 renal): 9.8 µM
TGI (786-0 renal): 21.9 µM
GI50 (HS 578T breast): 20.4 µM
TGI (HS 578T breast): 42.6 µM
GI50 (MDA-MB-435): 3.86 µM
TGI (MDA-MB-435): 15.6 µM
GI50 (SNB-19 CNS): 13.5 µM
TGI (SNB-19 CNS): 33 µM
GI50 (A549 NSCLC): 4.22 µM
TGI (A549 NSCLC): 17.6 µM
GI50 (T-47D breast): 1.28 µM
TGI (T-47D breast): 10.9 µM
GI50 (HL-60(TB) leukemia): 1.78 µM
TGI (HL-60(TB) leukemia): 9.69 µM
GI50 (CAKI-1 renal): 2.93 µM
TGI (CAKI-1 renal): 13.5 µM
GI50 (KM12 colon): 3.68 µM
TGI (KM12 colon): 19 µM
GI50 (TK-10 renal): 1.22 µM
TGI (TK-10 renal): 7.75 µM
GI50 (U251 CNS): 18.1 µM
TGI (U251 CNS): 33.8 µM
GI50 (IGROV1 ovarian): 17.7 µM
TGI (IGROV1 ovarian): 56.9 µM
GI50 (SNB-75 CNS): 9.86 µM
TGI (SNB-75 CNS): 28.5 µM
GI50 (SK-MEL-28 melanoma): 12.3 µM
TGI (SK-MEL-28 melanoma): 25.1 µM
GI50 (OVCAR-5 ovarian): 11.9 µM
TGI (OVCAR-5 ovarian): 24.3 µM
GI50 (CCRF-CEM leukemia): 9.41 µM
TGI (CCRF-CEM leukemia): 34.8 µM
GI50 (RPMI-8226 leukemia): 4.91 µM
TGI (RPMI-8226 leukemia): > 100 µM
GI50 (K-562 leukemia): 4.18 µM
TGI (K-562 leukemia): 31.6 µM
GI50 (SR leukemia): 2.89 µM
TGI (SR leukemia): 9.28 µM
GI50 (HT29 colon): 4.7 µM
TGI (HT29 colon): 18 µM
GI50 (MDA-MB-231 breast): 16.6 µM
TGI (MDA-MB-231 breast): > 100 µM
GI50 (NCI-H522 lung): 19.1 µM
TGI (NCI-H522 lung): > 100 µM
GI50 (HCT-116 colon): 2.95 µM
TGI (HCT-116 colon): 15.6 µM
GI50 (M14 melanoma): 5.54 µM
TGI (M14 melanoma): 17.9 µM
GI50 (OVCAR-3 ovarian): 4.4 µM
TGI (OVCAR-3 ovarian): 26.7 µM
GI50 (COLO 205 colon): 5.81 µM
TGI (COLO 205 colon): 24.1 µM
GI50 (PC-3 prostate): 5.39 µM
TGI (PC-3 prostate): 21.7 µM
GI50 (MCF7 breast): 3.14 µM
TGI (MCF7 breast): 9.27 µM
GI50 (NCI-H460 lung): 4.02 µM
TGI (NCI-H460 lung): 16.8 µM
GI50 (SK-OV-3 ovarian): 15.3 µM
TGI (SK-OV-3 ovarian): 31.8 µM
GI50 (SN12C renal): 10.9 µM
TGI (SN12C renal): 24.2 µM
GI50 (DU-145 prostate): 16.6 µM
TGI (DU-145 prostate): 32.2 µM
GI50 (NCI-H226 lung): 3.84 µM
TGI (NCI-H226 lung): 16.8 µM
GI50 (SF-295 CNS): 4.51 µM
TGI (SF-295 CNS): 17.1 µM
GI50 (NCI/ADR-RES ovarian): 2.7 µM
TGI (NCI/ADR-RES ovarian): 14.6 µM
GI50 (NCI-H23 lung): 2.41 µM
TGI (NCI-H23 lung): 12 µM
GI50 (OVCAR-8 ovarian): 5.18 µM
TGI (OVCAR-8 ovarian): 19.6 µM
GI50 (SF-539 CNS): 13.9 µM
TGI (SF-539 CNS): 29.5 µM
GI50 (OVCAR-4 ovarian): 5.08 µM
TGI (OVCAR-4 ovarian): 74 µM
GI50 (UO-31 renal): 14.2 µM
TGI (UO-31 renal): > 100 µM
GI50 (HOP-62 NSCLC): 17.8 µM
TGI (HOP-62 NSCLC): 31.9 µM
GI50 (SF-268 CNS): 11 µM
TGI (SF-268 CNS): 29.6 µM
GI50 (RXF 393 renal): 3.2 µM
TGI (RXF 393 renal): 8.89 µM
